US20220339260A1, “METHOD FOR PRODUCING INSULIN-PRODUCING CELL USING DIHYDROINDOLIZINONE DERIVATIVES” (TOKYO INSTITUTE OF TECHNOLOGY, priority 2019, published 2022)

System: SK7 mouse ES cells
Test: Screening for β cell differentiation enhancer using SK7 mouse ES cells (Pdx1-GFP)
Type: cell-based
Protocol: The SK7 mouse ES cells were differentiated into β cells basically according to the previous report (Nakashima et al., 2015). Briefly, the cells were seeded at 5,000 cells per well in CellBIND 384-well (CORNING, 3770) cell culture plate or at 20,000 cells per well in a 96-well plate (Sigma) coated with 0.2% gelatin. Then, the cells were cultured in medium 1 from days 1 to 5. Medium 1 consisted of DMEM (high glucose) (Life Technologies, 11965092) supplemented with 0.1 mM NEAA (Gibco, 11140-50), 2 mM L-glutamine (Nacalai, 16948-04), 100 U/mL penicillin-streptomycin (Nacalai, 26252-94), 0.01 mM β-mercaptoethanol (Sigma), 1% insulin-transferrin-selenium supplement (ITS: Life Technologies, 41400045), 0.25% Albumax (Thermo Fisher, 11020021), and 10 ng/mL recombinant human activin-A (R&D Systems, 338-AC). Subsequently, the cells were cultured for 1 day in medium 2 which consisted of medium 1 supplemented with 10 μM retinoic acid (Stemgent, 04-0021). On day 6, the medium was replaced with medium 3, and the culture was continued until day 12 in order to induce differentiation into β cells. Medium 3 consisted of DMEM (low glucose) (Life Technologies, 11885084) supplemented with 0.1 mM NEAA, 2 mM L-glutamine, 100 U/mL penicillin-streptomycin, 0.1 mM β-mercaptoethanol, 1% ITS, 0.25% Albumax, and 3 mM nicotinamide (Sigma-Aldrich, N0636-500G). A test compound was added on day 8, and the cells were fixed in 4% paraformaldehyde for analysis using a high-content imager.
A chemical library consisting of about 55,000 compounds was screened for a substance that induced β cell differentiation. […] Fluorescence images were quantified using Operetta high-content imaging system and Harmony image analysis software (PerkinElmer, Germany). The nuclei were identified by DAPI staining, and the positivity of antibody staining was determined from the fluorescence intensity of a cytoplasmic region surrounding the nucleus. The number of cells positive to both insulin and GFP was counted and normalized with the total number of DAPI-positive cells or a positive area. A median of quadruple data was calculated, and screening hits were defined as states in which the number of insulin- and GFP-positive cells was increased as compared with a DMSO control. […] The activity of the selected candidate compounds was further analyzed with Toe human iPS cell assay system in order to select a hit compound having effectiveness for both differentiation into mouse β cells and differentiation into human β cells. A compound was added as described above, and its effectiveness was evaluated from a mRNA expression level by q-PCR in triplet experiments. […]

O=C1CCC(C(=O)Nc2ncc(-c3ccccc3)s2)n2cccc21 (stereo not drawn) [Synthesis Example 1, 8-Oxo-N-(5-phenylthiazol-2-yl)-6,7-dihydro-5H-indolizine-5-carboxamide]
number of Pdx1-GFP+Ins+ double-positive cells (K-1 in combination with γ-secretase inhibitor LY411575): further enhanced increase | ratio of Pdx1-GFP+insulin+ double-positive cells (dose-dependent, compound added on day 8): increased | expression of insulin 1 (dose-dependent, mRNA normalized with Hprt1): increased
